pIC50: −log10 of the molar value.

34 compounds from patent publication US8685977B2, “Chemical compounds” (Pfizer Limited, priority 2010, dated 2014) can be followed below.

T1 sequence (Q15858 whole entry): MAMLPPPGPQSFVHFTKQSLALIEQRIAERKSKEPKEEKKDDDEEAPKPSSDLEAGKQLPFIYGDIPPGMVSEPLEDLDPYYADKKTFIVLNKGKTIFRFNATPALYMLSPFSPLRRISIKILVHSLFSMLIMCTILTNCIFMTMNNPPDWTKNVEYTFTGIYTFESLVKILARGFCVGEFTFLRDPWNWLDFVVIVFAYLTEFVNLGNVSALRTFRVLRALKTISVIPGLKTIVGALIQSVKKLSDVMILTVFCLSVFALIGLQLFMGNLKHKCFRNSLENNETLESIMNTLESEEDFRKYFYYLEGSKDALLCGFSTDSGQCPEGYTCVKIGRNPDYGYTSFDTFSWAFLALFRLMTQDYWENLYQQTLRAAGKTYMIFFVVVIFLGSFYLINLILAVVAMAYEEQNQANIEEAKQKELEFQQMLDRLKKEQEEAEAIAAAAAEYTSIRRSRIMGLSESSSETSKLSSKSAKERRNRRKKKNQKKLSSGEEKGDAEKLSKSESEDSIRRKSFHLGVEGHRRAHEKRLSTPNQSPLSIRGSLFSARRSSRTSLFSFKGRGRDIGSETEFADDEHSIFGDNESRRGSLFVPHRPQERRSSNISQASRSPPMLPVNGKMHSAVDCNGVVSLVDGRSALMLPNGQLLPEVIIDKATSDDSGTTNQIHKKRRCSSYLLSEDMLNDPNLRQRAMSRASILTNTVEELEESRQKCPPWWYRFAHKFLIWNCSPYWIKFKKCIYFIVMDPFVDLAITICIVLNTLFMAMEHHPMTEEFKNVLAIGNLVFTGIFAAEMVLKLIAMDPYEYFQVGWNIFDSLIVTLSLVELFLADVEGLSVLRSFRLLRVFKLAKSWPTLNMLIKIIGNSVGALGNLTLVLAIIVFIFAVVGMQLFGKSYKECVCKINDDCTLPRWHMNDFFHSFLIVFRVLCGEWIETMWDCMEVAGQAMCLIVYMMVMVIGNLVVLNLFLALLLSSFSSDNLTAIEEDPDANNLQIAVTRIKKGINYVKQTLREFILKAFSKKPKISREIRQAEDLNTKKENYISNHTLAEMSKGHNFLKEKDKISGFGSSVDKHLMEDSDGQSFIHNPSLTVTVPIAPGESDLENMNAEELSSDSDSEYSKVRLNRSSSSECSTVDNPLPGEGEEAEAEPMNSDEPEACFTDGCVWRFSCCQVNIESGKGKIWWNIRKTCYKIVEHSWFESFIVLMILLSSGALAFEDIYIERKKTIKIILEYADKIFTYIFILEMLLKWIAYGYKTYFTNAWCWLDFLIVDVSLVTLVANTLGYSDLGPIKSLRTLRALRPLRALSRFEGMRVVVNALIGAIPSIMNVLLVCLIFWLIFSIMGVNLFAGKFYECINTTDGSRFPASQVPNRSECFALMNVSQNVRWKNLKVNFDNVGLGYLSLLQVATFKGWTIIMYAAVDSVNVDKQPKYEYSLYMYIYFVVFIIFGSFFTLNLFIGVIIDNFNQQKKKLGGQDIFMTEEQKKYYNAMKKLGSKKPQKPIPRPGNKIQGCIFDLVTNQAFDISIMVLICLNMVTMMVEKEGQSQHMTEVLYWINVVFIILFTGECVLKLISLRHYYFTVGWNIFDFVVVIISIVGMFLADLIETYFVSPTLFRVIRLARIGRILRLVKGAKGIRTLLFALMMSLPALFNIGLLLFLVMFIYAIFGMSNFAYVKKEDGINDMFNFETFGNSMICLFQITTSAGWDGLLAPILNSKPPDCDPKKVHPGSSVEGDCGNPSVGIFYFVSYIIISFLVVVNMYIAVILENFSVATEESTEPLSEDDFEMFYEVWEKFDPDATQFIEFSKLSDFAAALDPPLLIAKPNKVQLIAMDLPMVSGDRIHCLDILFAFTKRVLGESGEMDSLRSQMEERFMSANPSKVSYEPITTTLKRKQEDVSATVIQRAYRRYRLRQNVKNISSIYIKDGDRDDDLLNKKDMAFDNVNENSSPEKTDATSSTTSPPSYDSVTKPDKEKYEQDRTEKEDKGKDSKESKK

This test has as its target T1, Nav1.7 (or SCN9A) channel (Homo sapiens, UniProt Q15858).
T1 construct: expressed in transfected cells
Nature of the test: Nav1.7 PatchXpress 7000 automated electrophysiology assay (HEK cells stably expressing hSCN9A). It counts as cell-based. The conditions noted are these: voltage-clamped at V1/2 of inactivation, read-out: Nav1.7 EIC50. On the procedure:
The ability of the compounds of formula (I) to block the Nav1.7 (or SCN9A) channel was measured using the assays described below.
Human Embryonic Kidney (HEK) cells were transfected with an hSCN9A construct using lipofectamine reagent (Invitrogen), using standard techniques. Cells stably expressing the hSCN9A constructs were identified by their resistance to G-418 (400 μg/ml). Clones were screened for expression using the whole-cell voltage-clamp technique.
HEK cells stably transfected with hSCN9A were maintained in DMEM medium supplemented with 10% heat-inactivated fetal bovine serum and 400 μg/ml G-418 in an incubator at 37° C. with a humidified atmosphere of 10% CO2. For HTS, cells were harvested from flasks by trypsinization and replated in an appropriate multi-well plate (typically 96 or 384 wells/plate) such that confluence would be achieved within 24 hours of plating. For electrophysiological studies, cells were removed from the culture flask by brief trypsinization and re-plated at low density onto glass cover slips. Cells were typically used for electrophysiological experiments within 24 to 72 hours after plating.
Cover slips containing HEK cells expressing hSCN9A were placed in a bath on the stage of an inverted microscope and perfused (approximately 1 ml/minutes) with extracellular solution of the following composition: 138 mM NaCl, 2 mM CaCl2, 5.4 mM KCl, 1 mM MgCl2, 10 mM glucose, and 10 mM HEPES, pH 7.4, with NaOH. […] The osmolarity of the extracellular and intracellular solutions was 300 mOsm/kg and 295 mOsm/kg, respectively. All recordings were made at room temperature (22-24° C.) using AXOPATCH 200B amplifiers and PCLAMP software (Axon Instruments, Burlingame, Calif.).
HEK cells stably transfected with hSCN9A were viewed under Hoffman contrast optics and placed in front of an array of flow pipes emitting either control or compound-containing extracellular solutions. All compounds were dissolved in dimethyl sulfoxide to make 10 mM stock solutions, which were then diluted into extracellular solution to attain the final concentrations desired. […] The voltage-dependence of inactivation was determined by applying a series of depolarizing prepulses (8 sec long in 10 mV increments) from a negative holding potential. The voltage was then immediately stepped to 0 mV to assess the magnitude of the sodium current. Currents elicited at 0 mV were plotted as a function of prepulse potential to allow estimation of the voltage at which 50% of the channels were inactivated (midpoint of inactivation or V1/2). Compounds were tested for their ability to inhibit hSCN9A sodium channels by activating the channel with a 20 msec voltage step to 0 mV following an 8 second conditioning prepulse to the empirically determined V1/2. Compound effect (% inhibition) was determined by difference in current amplitude before and after application of test compounds. For ease of comparison, “estimated IC-50” (EIC50) values were calculated from single point electrophysiology data by the following equation, (tested concentration, uM)×(100-% inhibition/% inhibition). Inhibition values <20% and >80% were excluded from the calculation.
Electrophysiological assays were conducted with PatchXpress 7000 hardware and associated software (Molecular Devices Corp). All assay buffers and solutions were identical to those used in conventional whole-cell voltage clamp experiments described above. hSCN9A cells were grown as above to 50%-80% confluency and harvested by trypsinization. Trypsinized cells were washed and resuspended in extracellular buffer at a concentration of 1×10^6 cells/ml. The onboard liquid handling facility of the PatchXpress was used for dispensing cells and application of test compounds. Determination of the voltage midpoint of inactivation was as described for conventional whole-cell recordings. Cells were then voltage-clamped to the empirically determined V1/2 and current was activated by a 20 msec voltage step to 0 mV. […]
With `COc1ccc(C#N)cc1Oc1cc(F)c(C(=O)NS(C)(=O)=O)cc1F` [Example 88, 4-(5-cyano-2-methoxyphenoxy)-2,5-difluoro-N-(methylsulfonyl)benzamide], the pIC50 was less than 5.52.
With `COc1cccc(Oc2ccc(C(=O)NS(C)(=O)=O)cc2Cl)c1` [Example 255, 3-chloro-4-(3-methoxyphenoxy)-N-(methylsulfonyl)benzamide] the figure was 5.85.
With `CCOc1ccccc1Oc1cc(F)c(C(=O)NS(C)(=O)=O)cc1Cl` [Example 288, 5-chloro-4-(2-ethoxyphenoxy)-2-fluoro-N-(methylsulfonyl)benzamide] the figure was 5.70.
Then `CS(=O)(=O)NC(=O)c1cc(F)c(Oc2ccc(OC(F)(F)F)c(Cl)c2)cc1F` [Example 55, 4-(3-chloro-4-(trifluoromethoxy)phenoxy)-2,5-difluoro-N-(methylsulfonyl)benzamide], with 6.47; and `CS(=O)(=O)NC(=O)c1ccc(Oc2ccc3ccccc3c2)c(C#N)c1` [Example 269, 3-cyano-N-(methylsulfonyl)-4-(2-naphthyloxy)benzamide], with 5.77.
For the compound `Cc1ccc(Cl)c(Oc2ccc(C(=O)NS(C)(=O)=O)cc2)c1` [Example 180, 4-(2-chloro-5-methylphenoxy)-N-(methylsulfonyl)benzamide], the pIC50 is 4.49.
Take `COc1ccc(Cl)c(Oc2ccc(C(=O)NS(C)(=O)=O)cc2)c1` [Example 194, 4-(2-chloro-5-methoxyphenoxy)-N-(methylsulfonyl)benzamide]: the pIC50 was less than 5.00.
With `Cc1ccc(Oc2ccc(C(=O)NS(C)(=O)=O)cc2)c(Cl)c1` [Example 203, 4-(2-chloro-4-methylphenoxy)-N-(methylsulfonyl)benzamide] the figure was 4.60; with `CS(=O)(=O)NC(=O)c1ccc(Oc2ccc(Cl)c(Cl)c2)c(C#N)c1` [Example 29, 3-cyano-4-(3,4-dichlorophenoxy)-N-(methylsulfonyl)benzamide], 6.02.
With `Cc1cc(C(=O)NS(C)(=O)=O)ccc1Oc1ccc(Cl)cc1` [Example 240, 4-(4-chlorophenoxy)-3-methyl-N-(methylsulfonyl)benzamide], the pIC50 was 6.20.
On to `CS(=O)(=O)NC(=O)c1ccc(Oc2ccc(F)cc2)cc1` [Example 309, 4-(4-fluorophenoxy)-N-(methylsulfonyl)benzamide], for which the pIC50 is 4.74.
With `CS(=O)(=O)NC(=O)c1ccc(Oc2ccc(Cl)c(C(F)(F)F)c2)c(Cl)c1` [Example 44, 3-chloro-4-[4-chloro-3-(trifluoromethyl)phenoxy]-N-(methylsulfonyl)benzamide] the figure was 5.70; with `CS(=O)(=O)NC(=O)c1cc(F)c(Oc2ccccc2OC(F)(F)F)cc1F` [Example 103, 2,5-difluoro-N-(methylsulfonyl)-4-[2-(trifluoromethoxy)phenoxy]benzamide], 5.49; with `CCS(=O)(=O)NC(=O)c1ccc(Oc2ccc(C)cc2)cc1` [Example 308, N-(ethylsulfonyl)-4-(4-methylphenoxy)benzamide], less than 5.00.
Then `COc1ccc(Oc2ccc(C(=O)NS(C)(=O)=O)cc2)c(F)c1F` [Example 196, 4-(2,3-difluoro-4-methoxyphenoxy)-N-(methylsulfonyl)benzamide], with 4.96; and `CS(=O)(=O)NC(=O)c1ccc(Cc2ccc(Cl)c(Cl)c2)cc1` [Example 315, 4-(3,4-Dichlorobenzyl)-N-(methylsulfonyl)benzamide], with 5.82.
Then `CS(=O)(=O)NC(=O)c1cc(Cl)c(Oc2ccc(OC(F)(F)F)c(Cl)c2)cc1F` [Example 7, 5-chloro-4-[3-chloro-4-(trifluoromethoxy)phenoxy]-2-fluoro-N-(methylsulfonyl)benzamide], with 7.60; and `CS(=O)(=O)NC(=O)c1cc(F)c(Oc2ccc(Cl)c(C(F)(F)F)c2)cc1F` [Example 75, 4-(4-chloro-3-(trifluoromethyl)phenoxy)-2,5-difluoro-N-(methylsulfonyl)benzamide], with 6.35; and `CS(=O)(=O)NC(=O)c1cc(F)c(Oc2ccc(Cl)c(OC(F)F)c2)cc1F` [Example 49, 4-[4-chloro-3-(difluoromethoxy)phenoxy]-2,5-difluoro-N-(methylsulfonyl)benzamide], with 6.28.
On to `Cc1ccc(F)c(Oc2cc(F)c(C(=O)NS(C)(=O)=O)cc2F)c1` [Example 122, 2,5-difluoro-4-(2-fluoro-5-methylphenoxy)-N-(methylsulfonyl)benzamide], for which the pIC50 was 5.36.
With `CCS(=O)(=O)NC(=O)c1ccc(Oc2ccc(Cl)cc2)cc1` [Example 23, 4-(4-chlorophenoxy)-N-(ethylsulfonyl)benzamide] the figure was 5.47; with `CS(=O)(=O)NC(=O)c1cc(F)c(Oc2ccc(Cl)cc2)cc1F` [Example 129, 4-(4-chlorophenoxy)-2,5-difluoro-N-(methylsulfonyl)benzamide], 5.89; with `CC(C)c1ccccc1Oc1cc(F)c(C(=O)NS(C)(=O)=O)cc1F` [Example 93, 2,5-difluoro-4-(2-isopropylphenoxy)-N-(methylsulfonyl)benzamide], less than 6.00.
With `CS(=O)(=O)NC(=O)c1cc(F)c(Oc2ccc(Cl)c(C(F)(F)F)c2)cc1Cl` [Example 77, 2-chloro-4-(4-chloro-3-(trifluoromethyl)phenoxy)-5-fluoro-N-(methylsulfonyl)benzamide] the figure was 6.28; with `COc1cc(Oc2ccc(F)c(C)c2)ccc1C(=O)NS(C)(=O)=O` [Example 216, 4-(4-fluoro-3-methylphenoxy)-2-methoxy-N-(methylsulfonyl)benzamide], 4.96; with `CCOc1ccc(Oc2cc(F)c(C(=O)NS(C)(=O)=O)cc2Cl)cc1` [Example 294, 5-chloro-4-(4-ethoxyphenoxy)-2-fluoro-N-(methylsulfonyl)benzamide], 6.80.
Then `CS(=O)(=O)NC(=O)c1cc(F)c(Oc2cccc(C(F)(F)F)c2)cc1F` [Example 138, 2,5-difluoro-N-(methylsulfonyl)-4-[3-(trifluoromethyl)phenoxy]benzamide], with 5.18; and `CCOc1cccc(Oc2ccc(C(=O)NS(C)(=O)=O)cc2C#N)c1` [Example 281, 3-cyano-4-(3-ethoxyphenoxy)-N-(methylsulfonyl)benzamide], with 5.37; and `CS(=O)(=O)NC(=O)c1cc(F)c(Oc2cccc(Cl)c2Cl)cc1F` [Example 87, 4-(2,3-dichlorophenoxy)-2,5-difluoro-N-(methylsulfonyl)benzamide], with 5.16.
Regarding `COc1cc(C)cc(Oc2ccc(C(=O)NS(C)(=O)=O)cc2)c1` [Example 204, 4-(3-methoxy-5-methylphenoxy)-N-(methylsulfonyl)benzamide], the pIC50 is 4.68.
Then `CS(=O)(=O)NC(=O)c1ccc(Oc2ccc(Cl)c(F)c2)cc1` [Example 220, 4-(4-chloro-3-fluorophenoxy)-N-(methylsulfonyl)benzamide], with 5.74; and `CS(=O)(=O)NC(=O)c1cc(F)c(Oc2c(F)cccc2F)cc1F` [Example 96, 4-(2,6-difluorophenoxy)-2,5-difluoro-N-(methylsulfonyl)benzamide], with less than 5.52; and `COc1cc(Oc2ccc(Cl)c(C)c2)ccc1C(=O)NS(C)(=O)=O` [Example 231, 4-(4-chloro-3-methylphenoxy)-2-methoxy-N-(methylsulfonyl)benzamide], with 5.41.
Take `COc1ccc(Cl)cc1Oc1cc(F)c(C(=O)NS(C)(=O)=O)cc1F` [Example 67, 4-(5-chloro-2-methoxyphenoxy)-2,5-difluoro-N-(methylsulfonyl)benzamide]: the pIC50 is 5.30.
